Values of other authors, collected in patent publication US8092822B2, “Coatings including dexamethasone derivatives and analogs and olimus drugs” (Abbott Cardiovascular Systems Inc., priority 2008, dated 2012).

How the values were obtained:
[1] = test system: endothelial cell proliferation
[2] = test system: human coronary artery endothelial cells; details: in vitro

SMILES | inhibition of endothelial cell proliferation [1] | inhibition of migration of human coronary artery endothelial cells [2] | effect on endothelial migration (endothelial migration)
CO[C@H]1C[C@@H]2CC[C@@H](C)[C@@](O)(O2)C(=O)C(=O)N2CCCC[C@H]2C(=O)O[C@H]([C@H](C)C[C@@H]2CC[C@H](n3cnnn3)[C@H](OC)C2)CC(=O)[C@H](C)/C=C(\C)[C@@H](O)[C@@H](OC)C(=O)[C@H](C)C[C@H](C)/C=C/C=C/C=C/1C [zotarolimus] | inhibit |  | 
CC(=O)O[C@H]1C(=O)[C@@]2(C)[C@H]([C@H](OC(=O)c3ccccc3)[C@]3(O)C[C@H](OC(=O)[C@H](O)[C@@H](NC(=O)c4ccccc4)c4ccccc4)C(C)=C1C3(C)C)[C@]1(OC(C)=O)CO[C@@H]1C[C@@H]2O [paclitaxel, Paclitaxel] | inhibit | inhibits | 
C[C@@H]1C[C@H]2[C@@H]3CCC4=CC(=O)C=C[C@]4(C)[C@@]3(F)[C@@H](O)C[C@]2(C)[C@@]1(O)C(=O)CO [dexamethasone, Dexamethasone] |  |  | positive effect
